According to patent US9932637B2, “Genetic polymorphisms associated with cardiovascular disorders and drug response, methods of detection and uses thereof” (CELERA CORPORATION, priority 2003, dated 2018):
Values joined by “and” are separate entries in the source; they are usually repeats but may differ in a detail not shown here. Equal values may be shown once.

System: patients with prior myocardial infarction (CARE study)
Experiment: CARE aligned analysis (prospective and case/control design, white males): association of genotypes with pravastatin efficacy (Tables 13, 15)
Assay type: in vivo, human
Conditions: for Pravastatin vs placebo odds ratio, 0 rare alleles / Pravastatin vs placebo odds ratio, 1 rare allele / Pravastatin vs placebo odds ratio, 2 rare alleles / 2 rare alleles n/total (%), pravastatin patients: CARE, F MI/SD/NF MI; for Pravastatin Patients (%) / Pravastatin Patients n/total: WM
Protocol: The data presented in Table 8 based on an association of genotypes with pravastatin efficacy of the CARE samples were further analyzed and presented in Table 13. The further analysis was performed to align the data obtained from the analysis of the CARE samples, which was a prospective study, to the analysis of the WOSCOP samples, which was a case/control study. Table 13 also presents an analysis of the association of genotypes with pravastatin efficacy in the WOSCOPs samples. Relative to the analysis performed on the data presented in Table 8, there are two significant differences to determine if the SNP influenced pravastatin efficacy. Data obtained from the CARE samples were separated by study design into two groups, those in the prospective study design group and those in the case/control study design group. The original care study contained 16 protocol defined cardiovascular disease defined endpoints and 150 other phenotypes. […] The control groups used to compare the data were also divided into two groups, the “all possible” control group and the “cleaner” control group. […] Because the participants in the WOSCOPs trial were all white males, only data obtained from white males in the CARE study were analysed. Data from the “all possible” and “cleaner” controls were compared to data obtained from the cases in the prospective study design while only data from “cleaner” controls were compared to cases in the case/control study design. The data from the case/control cohorts were analysed using conditional logistic regression (as opposed to logistic regression used for the original anaylsis).
The anaylsis was refined as described for both Tables 13 and 14.

[1] = KLK14 hCV16044337, 0 Rare Alleles, CARE Case/Control, F&NF MI, All Possible controls
[2] = KLK14 hCV16044337, 0 Rare Alleles, CARE Case/Control, F&NF MI, Cleaner controls
[3] = KLK14 hCV16044337, 0 Rare Alleles, CARE Prospective, F&NF MI, All Possible controls
[4] = KLK14 hCV16044337, 0 Rare Alleles, CARE Prospective, F&NF MI, Cleaner controls
[5] = KLK14 hCV16044337, 1 Rare Allele, CARE Case/Control, F&NF MI, All Possible controls
[6] = KLK14 hCV16044337, 1 Rare Allele, CARE Case/Control, F&NF MI, Cleaner controls
[7] = KLK14 hCV16044337, 1 Rare Allele, CARE Prospective, F&NF MI, All Possible controls
[8] = KLK14 hCV16044337, 1 Rare Allele, CARE Prospective, F&NF MI, Cleaner controls
[9] = KLK14 hCV16044337, Case/Control
[10] = LPA hCV11225994, 0 Rare Alleles, CARE Case/Control, F&NF MI, Cleaner controls
[11] = LPA hCV11225994, 1 Rare Allele, CARE Case/Control, F&NF MI, Cleaner controls
[12] = MYH7 hCV25629396, 0 Rare Alleles, CARE Case/Control, F&NF MI, Cleaner controls
[13] = MYH7 hCV25629396, 0 Rare Alleles, CARE Prospective, F&NF MI, Cleaner controls
[14] = MYH7 hCV25629396, 1 Rare Allele, CARE Case/Control, F&NF MI, All Possible controls
[15] = MYH7 hCV25629396, 1 Rare Allele, CARE Case/Control, F&NF MI, Cleaner controls
[16] = MYH7 hCV25629396, 1 Rare Allele, CARE Prospective, F&NF MI, All Possible controls
[17] = MYH7 hCV25629396, 1 Rare Allele, CARE Prospective, F&NF MI, Cleaner controls
[18] = NOS3 hCV3219460, 0 Rare Alleles, CARE Case/Control, F&NF MI, All Possible controls
[19] = NOS3 hCV3219460, 0 Rare Alleles, CARE Case/Control, F&NF MI, Cleaner controls
[20] = NOS3 hCV3219460, 0 Rare Alleles, CARE Prospective, F&NF MI, All Possible controls
[21] = NOS3 hCV3219460, 0 Rare Alleles, CARE Prospective, F&NF MI, Cleaner controls
[22] = NOS3 hCV3219460, 1 Rare Allele, CARE Case/Control, F&NF MI, All Possible controls
[23] = NOS3 hCV3219460, 1 Rare Allele, CARE Case/Control, F&NF MI, Cleaner controls
[24] = NOS3 hCV3219460, 1 Rare Allele, CARE Prospective, F&NF MI, All Possible controls

Compound: CC[C@H](C)C(=O)O[C@H]1C[C@H](O)C=C2C=C[C@H](C)[C@H](CC[C@@H](O)C[C@@H](O)CC(=O)O)[C@H]21 [pravastatin]
- Pravastatin vs placebo odds ratio, 0 rare alleles (KDR hCV22271999, Case/Control): 0.67 and 0.59
- Pravastatin vs placebo odds ratio, 1 rare allele (KDR hCV22271999, Case/Control): 1.69
- Pravastatin vs placebo odds ratio, 2 rare alleles (KDR hCV22271999, Case/Control): 0.38 and 0.31
- 2 rare alleles n/total (%), pravastatin patients (KDR hCV22271999, Prospective): (9.1%)
- Pravastatin vs placebo odds ratio, 0 rare alleles (KDR hCV22271999, Prospective): 0.61
- Pravastatin vs placebo odds ratio, 1 rare allele (KDR hCV22271999, Prospective): 1.41
- Pravastatin vs placebo odds ratio, 2 rare alleles (KDR hCV22271999, Prospective): 0.27
- Pravastatin Patients (%) [1]: (10.9%)
- Pravastatin Patients n/total [1]: 60/548
- Pravastatin Patients (%) [2]: (16.4%)
- Pravastatin Patients n/total [2]: 60/365
- Pravastatin Patients (%) [3]: (10.7%)
- Pravastatin Patients n/total [3]: 60/560
- Pravastatin Patients (%) [4]: (16.0%)
- Pravastatin Patients n/total [4]: 60/374
- Pravastatin Patients (%) [5]: (10.4%)
- Pravastatin Patients n/total [5]: 57/547
- Pravastatin Patients (%) [6]: (14.3%)
- Pravastatin Patients n/total [6]: 57/399
- Pravastatin Patients (%) [7]: (10.3%)
- Pravastatin Patients n/total [7]: 57/556
- Pravastatin Patients (%) [8]: (14.1%)
- Pravastatin Patients n/total [8]: 57/404
- Pravastatin vs placebo odds ratio, 0 rare alleles [9]: 1.02 and 0.98
- Pravastatin vs placebo odds ratio, 1 rare allele [9]: 0.85 and 0.74
- Pravastatin vs placebo odds ratio, 2 rare alleles [9]: 0.23
- Pravastatin vs placebo odds ratio, 0 rare alleles (KLK14 hCV16044337, Prospective): 1.04 and 0.97
- Pravastatin vs placebo odds ratio, 1 rare allele (KLK14 hCV16044337, Prospective): 0.86 and 0.73
- Pravastatin vs placebo odds ratio, 2 rare alleles (KLK14 hCV16044337, Prospective): 0.22 and 0.23
- Pravastatin Patients (%) [10]: (14.0%)
- Pravastatin Patients n/total [10]: 88/627
- Pravastatin Patients (%) [11]: (15.4%)
- Pravastatin Patients n/total [11]: 29/188
- 2 Rare Alleles (%), Pravastatin Patients (LPA hCV11225994, CARE Case/Control, F&NF MI): (41.2%)
- 2 rare alleles n/total (%), pravastatin patients (MICA hCV25474101, Case/Control): (37.5%)
- Pravastatin vs placebo odds ratio, 0 rare alleles (MICA hCV25474101, Case/Control): 0.67
- Pravastatin vs placebo odds ratio, 1 rare allele (MICA hCV25474101, Case/Control): 0.72
- Pravastatin vs placebo odds ratio, 2 rare alleles (MICA hCV25474101, Case/Control): 6.64
- Pravastatin Patients (%) (MYH7 hCV25629396, 0 Rare Alleles, CARE Case/Control, F&NF MI, All Possible controls): (10.0%)
- Pravastatin Patients (%) [12]: (14.5%)
- Pravastatin Patients n/total [12]: 118/815
- Pravastatin Patients (%) (MYH7 hCV25629396, 0 Rare Alleles, CARE Prospective, F&NF MI, All Possible controls): (9.8%)
- Pravastatin Patients (%) [13]: (14.2%)
- Pravastatin Patients n/total [13]: 118/829
- Pravastatin Patients (%) [14]: (29.0%)
- Pravastatin Patients n/total [14]: 9/31
- Pravastatin Patients (%) [15]: (40.9%)
- Pravastatin Patients n/total [15]: 9/22
- Pravastatin Patients (%) [16]: (29.0%)
- Pravastatin Patients n/total [16]: 9/31
- Pravastatin Patients (%) [17]: (40.9%)
- Pravastatin Patients n/total [17]: 9/22
- Pravastatin vs placebo odds ratio, 0 rare alleles (MYH7 hCV25629396, Case/Control): 0.75 and 0.67
- Pravastatin vs placebo odds ratio, 1 rare allele (MYH7 hCV25629396, Case/Control): 12.05 and 11.70
- Pravastatin vs placebo odds ratio, 0 rare alleles (MYH7 hCV25629396, Prospective): 0.75 and 0.66
- Pravastatin vs placebo odds ratio, 1 rare allele (MYH7 hCV25629396, Prospective): 13.41 and 14.00
- Pravastatin Patients (%) [18]: (10.0%)
- Pravastatin Patients n/total [18]: 53/529
- Pravastatin Patients (%) [19]: (14.8%)
- Pravastatin Patients n/total [19]: 53/359
- Pravastatin Patients (%) [20]: (9.8%)
- Pravastatin Patients n/total [20]: 53/539
- Pravastatin Patients (%) [21]: (14.4%)
- Pravastatin Patients n/total [21]: 53/368
- Pravastatin Patients (%) [22]: (12.3%)
- Pravastatin Patients n/total [22]: 64/520
- Pravastatin Patients (%) [23]: (17.6%)
- Pravastatin Patients n/total [23]: 64/363
- Pravastatin Patients (%) [24]: (12.1%)
- Pravastatin Patients n/total [24]: 64/527
- Pravastatin Patients (%) (NOS3 hCV3219460, 1 Rare Allele, CARE Prospective, F&NF MI, Cleaner controls): (17.5%)
